Data taken from patent publication US20100160445A1, “Synergistic Mixtures of OPP and DGH” (priority 2002, published 2010).
Counter-ions that a name gives are not always drawn.

Test system: wild strain bacteria isolated from previously contaminated systems
Assay: In-Can Preservation Test of paint samples; on Microbial growth, 1st Inoculation, 1st sub-column: key: 4 = Heavy Microbial Growth; 3 = Moderate Microbial Growth; 2 = Slight Microbial Growth; 1 = Trace Microbial Growth; 0 = No Microbial Growth; on Microbial growth, 1st Inoculation, 2nd sub-column: key: 4 = Heavy Microbial Growth; 3 = Moderate Microbial Growth; 2 = Slight Microbial Growth; 1 = Trace Microbial Growth; 0 = No Microbial Growth; on Microbial growth, 2nd Inoculation, 1st sub-column: key: 4 = Heavy Microbial Growth; 3 = Moderate Microbial Growth; 2 = Slight Microbial Growth; 1 = Trace Microbial Growth; 0 = No Microbial Growth; on Microbial growth, 2nd Inoculation, 2nd sub-column: key: 4 = Heavy Microbial Growth; 3 = Moderate Microbial Growth; 2 = Slight Microbial Growth; 1 = Trace Microbial Growth; 0 = No Microbial Growth
Assay type: cell-based
Settings: for Effective Preservative (ppm): two inoculation challenge
Protocol: Preservation Testing was performed on the three paint samples: Acrylic Flat, Acrylic and Vinyl Acrylic. Each sample was treated with various levels OPP, DGH individually and a mixture of OPP and DGH. All samples were then inoculated with wild strain bacteria isolated from previously contaminated systems. Following the initial inoculation, the samples were reinoculated on day 7. This testing scenario best simulates what happens in a “real world” situation. […]

[1] = Table 2 paint (Acrylic Flat / Vinyl Acrylic Flat), 250 ppm
[2] = Table 2 paint (Acrylic Flat / Vinyl Acrylic Flat), 500 ppm
[3] = Table 2 paint (Acrylic Flat / Vinyl Acrylic Flat), 750 ppm
[4] = Table 2 paint (Acrylic Flat / Vinyl Acrylic Flat), 1000 ppm
[5] = Table 2 paint (Acrylic Flat / Vinyl Acrylic Flat), 1500 ppm
[6] = Table 2 paint (Acrylic Flat / Vinyl Acrylic Flat), 2000 ppm
[7] = Table 3 paint (Vinyl Acrylic Flat / Acrylic Flat), 250 ppm
[8] = Table 3 paint (Vinyl Acrylic Flat / Acrylic Flat), 500 ppm
[9] = Table 3 paint (Vinyl Acrylic Flat / Acrylic Flat), 750 ppm
[10] = Table 3 paint (Vinyl Acrylic Flat / Acrylic Flat), 1000 ppm
[11] = Table 3 paint (Vinyl Acrylic Flat / Acrylic Flat), 1500 ppm
[12] = Table 3 paint (Vinyl Acrylic Flat / Acrylic Flat), 2000 ppm

## CCCCCCCCCCCCNC(=N)N [DGH, Dodecylguanidine Hydrochloride]
Acrylic Flat paint
  Effective Preservative (ppm): 1500 ppm
Acrylic paint, 250 ppm
  Microbial growth, 1st Inoculation, 1st sub-column: 3
  Microbial growth, 1st Inoculation, 2nd sub-column: 3
  Microbial growth, 2nd Inoculation, 1st sub-column: 3
  Microbial growth, 2nd Inoculation, 2nd sub-column: 3
Acrylic paint, 500 ppm
  Microbial growth, 1st Inoculation, 1st sub-column: 3
  Microbial growth, 1st Inoculation, 2nd sub-column: 3
  Microbial growth, 2nd Inoculation, 1st sub-column: 2
  Microbial growth, 2nd Inoculation, 2nd sub-column: 3
Acrylic paint, 750 ppm
  Microbial growth, 1st Inoculation, 1st sub-column: 3
  Microbial growth, 1st Inoculation, 2nd sub-column: 2
  Microbial growth, 2nd Inoculation, 1st sub-column: 2
  Microbial growth, 2nd Inoculation, 2nd sub-column: 2
Acrylic paint, 1000 ppm
  Microbial growth, 1st Inoculation, 1st sub-column: 3
  Microbial growth, 1st Inoculation, 2nd sub-column: 2
  Microbial growth, 2nd Inoculation, 1st sub-column: 1
  Microbial growth, 2nd Inoculation, 2nd sub-column: 1
Acrylic paint, 1500 ppm
  Microbial growth, 1st Inoculation, 1st sub-column: 3
  Microbial growth, 1st Inoculation, 2nd sub-column: 0
  Microbial growth, 2nd Inoculation, 1st sub-column: 1
  Microbial growth, 2nd Inoculation, 2nd sub-column: 0
Acrylic paint, 2000 ppm
  Microbial growth, 1st Inoculation, 1st sub-column: 3
  Microbial growth, 1st Inoculation, 2nd sub-column: 0
  Microbial growth, 2nd Inoculation, 1st sub-column: 1
  Microbial growth, 2nd Inoculation, 2nd sub-column: 0
Acrylic paint
  Effective Preservative (ppm): 2000 ppm
[1]
  Microbial growth, 1st Inoculation, 1st sub-column: 3
  Microbial growth, 1st Inoculation, 2nd sub-column: 2
  Microbial growth, 2nd Inoculation, 1st sub-column: 3
  Microbial growth, 2nd Inoculation, 2nd sub-column: 2
[2]
  Microbial growth, 1st Inoculation, 1st sub-column: 3
  Microbial growth, 1st Inoculation, 2nd sub-column: 2
  Microbial growth, 2nd Inoculation, 1st sub-column: 2
  Microbial growth, 2nd Inoculation, 2nd sub-column: 2
[3]
  Microbial growth, 1st Inoculation, 1st sub-column: 3
  Microbial growth, 1st Inoculation, 2nd sub-column: 2
  Microbial growth, 2nd Inoculation, 1st sub-column: 2
  Microbial growth, 2nd Inoculation, 2nd sub-column: 2
[4]
  Microbial growth, 1st Inoculation, 1st sub-column: 3
  Microbial growth, 1st Inoculation, 2nd sub-column: 2
  Microbial growth, 2nd Inoculation, 1st sub-column: 3
  Microbial growth, 2nd Inoculation, 2nd sub-column: 2
[5]
  Microbial growth, 1st Inoculation, 1st sub-column: 3
  Microbial growth, 1st Inoculation, 2nd sub-column: 2
  Microbial growth, 2nd Inoculation, 1st sub-column: 3
  Microbial growth, 2nd Inoculation, 2nd sub-column: 1
[6]
  Microbial growth, 1st Inoculation, 1st sub-column: 3
  Microbial growth, 1st Inoculation, 2nd sub-column: 0
  Microbial growth, 2nd Inoculation, 1st sub-column: 1
  Microbial growth, 2nd Inoculation, 2nd sub-column: 0
[7]
  Microbial growth, 1st Inoculation, 1st sub-column: 3
  Microbial growth, 1st Inoculation, 2nd sub-column: 2
  Microbial growth, 2nd Inoculation, 1st sub-column: 3
  Microbial growth, 2nd Inoculation, 2nd sub-column: 2
[8]
  Microbial growth, 1st Inoculation, 1st sub-column: 2
  Microbial growth, 1st Inoculation, 2nd sub-column: 2
  Microbial growth, 2nd Inoculation, 1st sub-column: 3
  Microbial growth, 2nd Inoculation, 2nd sub-column: 1
[9]
  Microbial growth, 1st Inoculation, 1st sub-column: 2
  Microbial growth, 1st Inoculation, 2nd sub-column: 2
  Microbial growth, 2nd Inoculation, 1st sub-column: 3
  Microbial growth, 2nd Inoculation, 2nd sub-column: 1
[10]
  Microbial growth, 1st Inoculation, 1st sub-column: 2
  Microbial growth, 1st Inoculation, 2nd sub-column: 2
  Microbial growth, 2nd Inoculation, 1st sub-column: 3
  Microbial growth, 2nd Inoculation, 2nd sub-column: 1
[11]
  Microbial growth, 1st Inoculation, 1st sub-column: 2
  Microbial growth, 1st Inoculation, 2nd sub-column: 2
  Microbial growth, 2nd Inoculation, 1st sub-column: 2
  Microbial growth, 2nd Inoculation, 2nd sub-column: 2
[12]
  Microbial growth, 1st Inoculation, 1st sub-column: 2
  Microbial growth, 1st Inoculation, 2nd sub-column: 2
  Microbial growth, 2nd Inoculation, 1st sub-column: 2
  Microbial growth, 2nd Inoculation, 2nd sub-column: 2
Vinyl Acrylic Flat paint
  Effective Preservative (ppm): >2000 ppm
